From ChEMBL document CHEMBL1156253 (Eur J Med Chem, 2010)

Target: T1, Peroxisome proliferator-activated receptor gamma (Homo sapiens, UniProt P37231)
T1 sequence (P37231 whole entry): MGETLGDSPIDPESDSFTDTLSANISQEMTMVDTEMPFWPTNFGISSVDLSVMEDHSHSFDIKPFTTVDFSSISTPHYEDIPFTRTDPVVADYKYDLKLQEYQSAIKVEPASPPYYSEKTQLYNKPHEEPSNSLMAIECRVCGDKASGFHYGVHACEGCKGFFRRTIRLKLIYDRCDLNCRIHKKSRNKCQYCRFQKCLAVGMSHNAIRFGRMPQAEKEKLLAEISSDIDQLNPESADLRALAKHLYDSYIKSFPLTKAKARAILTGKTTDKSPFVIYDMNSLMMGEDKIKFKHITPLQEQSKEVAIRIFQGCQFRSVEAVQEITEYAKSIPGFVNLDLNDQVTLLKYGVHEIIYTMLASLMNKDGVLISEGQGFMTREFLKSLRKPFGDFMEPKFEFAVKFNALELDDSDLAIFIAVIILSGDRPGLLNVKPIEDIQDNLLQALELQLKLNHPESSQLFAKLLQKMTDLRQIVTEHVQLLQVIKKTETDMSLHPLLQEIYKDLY
Assay: Agonist activity at N-terminal His-tagged human PPARgamma ligand binding domain by fluorescence polarization assay

Structure (SMILES) | IC50 [µM]
Cc1ccc(COc2ccccc2/C=C2/SC(=S)N(CCC(=O)O)C2=O)cc1 | 1.32
O=C(O)CCN1C(=O)/C(=C\c2ccc(Cl)cc2Cl)SC1=S | 0.876
